US20260374766A1, “METHODS FOR TREATING CANCER” (Antares Therapeutics, Inc., priority 2022, published 2026)
Where two headings read alike, the source gives them in different places.

What was measured:
H1299 p53 Y220C = experiment: Cell Proliferation Assay (CellTiter-Glo, CTG), H1299 p53 Y220C (NClH1299-inducible p53 Y220C); format: cell-based; settings: Homo sapiens, NCI-H1299, 120 h, 5 days
Method: (§1) Inducible p53 Y220C and R273H constructs (Tet-One inducible expression system; Takara) were stably expressed in NClH1299 cells by lentiviral transduction. NUGC3, A549, BxPC3, T3M4, HuH7, HCC2935, MFE296, NClH1299, NClH1299-inducible p53 Y220C, and NClH1299-inducible p53 R273H cell lines were used for cell proliferation assay. 250-500 cells were seeded in each well of 384 plate and then compounds were dispensed into each well using Echo or Tecan. After 5 days of incubation, equal volume of CellTiter-Glo reagent (G7570; Promega) was added into each well and the plate was incubated at room temperature for 10 minutes with shaking. The luminescent signal was measured by PheraStar microplate reader and IC50 was calculated.

NUGC3 p53 Y220C = experiment: Cell Proliferation Assay (CellTiter-Glo, CTG), NUGC3 p53 Y220C; format: cell-based; settings: Homo sapiens, NUGC-3, 120 h, 5 days
Method: as §1

[1] = target: T1, p53 Y220C mutant protein (amino acid residues 94-293) (Homo sapiens, UniProt P04637, Y220C); experiment: Surface Plasmon Resonance (SPR) assay, Kd_kinetic; format: binding; settings: SPR, p53 Y220C, read-out: SPR P53 Y220C KD kinetic
T1 construct: p53 Y220C mutant protein (amino acid residues 94-293)
Method: Surface Plasmon Resonance (SPR) Assay Protocol
SPR experiments were performed on a Biacore 8K instrument. […] The running buffer contained 50 mM Tris, pH 7.5, 100 mM NaCl, 1 mM DTT, 0.01% Brij35, 0.05% Tween-20 and 1% DMSO. The assay temperature was maintained at 16 or 20 °C and data were fit into the 1:1 binding model using the Biacore Insight Evaluation software.

H1299 p53 R273H = experiment: Cell Proliferation Assay (CellTiter-Glo, CTG), H1299 p53 R273H (NClH1299-inducible p53 R273H); format: cell-based; settings: Homo sapiens, NCI-H1299, 120 h, 5 days
Method: as §1

p53 Y220C = p53 Y220C (Homo sapiens, UniProt P04637, Y220C); experiment: Luciferase Reporter Assay (Luc), p53 response element, NClH1299 cells with inducible p53 Y220C; format: cell-based; settings: 6 hour; for AC50: read-out: Luc P53 Y220C AC50
Method: Luciferase Reporter Assay Protocol
The cells were then used for p53 reporter assay. 5,000 cells were seeded in each well of 384 plate and cultured in 0.5 ug/mL doxycycline (D3072; Sigma) containing medium for 24 hours before compound treatment. After 6 hour of compound treatment, equal volume of One-Glo reagent (E6110; Promega) was added to each well and the plate was incubated for 5 minutes with shaking at room temperature. The luciferase activity was immediately measured with PheraStar microplate reader.

[2] = NClH1299-inducible p53 Y220C cells, CellTiter-Glo
[3] = NClH1299-inducible p53 R273H cells, CellTiter-Glo
[4] = Emax, luciferase reporter, NClH1299 inducible p53 Y220C
[5] = AC50, luciferase reporter, NClH1299 inducible p53 Y220C
[6] = NClH1299-inducible p53 Y220C cells
[7] = AC50, NClH1299 cells with inducible p53 Y220C

T1 sequence (P04637 94-293, stated change not applied): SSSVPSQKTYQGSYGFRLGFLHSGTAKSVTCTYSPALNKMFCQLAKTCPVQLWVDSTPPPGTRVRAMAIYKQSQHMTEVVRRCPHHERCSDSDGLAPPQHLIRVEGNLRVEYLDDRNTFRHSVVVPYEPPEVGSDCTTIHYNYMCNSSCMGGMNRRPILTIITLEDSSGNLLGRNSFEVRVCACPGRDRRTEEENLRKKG

| Compound | IC50 (H1299 p53 Y220C; [2]) | IC50 (H1299 p53 R273H; [3]) | Emax (p53 Y220C; [4]) | AC50 (p53 Y220C; [5]) | IC50 (NUGC3 p53 Y220C; NUGC3 cells, CellTiter-Glo) | also measured |
| --- | --- | --- | --- | --- | --- | --- |
| CNC(=O)c1c[nH]nc1NCC#Cc1nc2c(N[C@@H]3CCN(C)C[C@@H]3F)cccn2c1SC(F)(F)F [Example 198] |  |  |  |  |  | IC50 (H1299 p53 Y220C; CellTiter-Glo, H1299 p53 Y220C): < 750 nM; IC50 (NUGC3 p53 Y220C; CellTiter-Glo, NUGC3 p53 Y220C): < 750 nM; Kd ([1]; kinetic KD): < 10 nM; IC50 (H1299 p53 R273H; CellTiter-Glo, H1299 p53 R273H): ≥ 10000 nM; Emax (p53 Y220C; luciferase reporter, NClH1299 inducible p53 Y220C, 10 uM tool compound as positive control): 80 to 90%; AC50 (p53 Y220C; luciferase reporter, NClH1299 inducible p53 Y220C): < 750 nM |
| CNC(=O)c1ccc(NCC#Cc2nc3c(N[C@H]4C[C@@H]5COC[C@@H](N5)[C@H]4F)cccn3c2SC(F)(F)F)c(OC)c1 [Example 279] | > 3000 nM | ≥ 10000 nM | 70 to 80% |  | > 3000 nM |  |
| CNC(=O)c1ccc(NCC#Cc2nn3c(N[C@@H]4CCN(C)C[C@@H]4F)cccc3c2SC(F)F)c(OC)c1 [Example 366] | < 750 nM | ≥ 10000 nM | 70 to 80% |  | < 750 nM |  |
| CNC(=O)c1ccc(OC)c(NCC#Cc2cc3c(N[C@@H]4CCN(C[C@@H](C)O)C[C@@H]4F)nccn3c2SC(F)(F)F)c1 [Example 401] | < 750 nM | 8000 to 10000 nM | > 90% | < 750 nM | < 750 nM |  |
| COc1cc(P(C)(C)=O)ncc1NCC#Cc1cc2c(N[C@@H]3CCN(C)C[C@@H]3F)cccn2c1SC(F)(F)F [Example 439, 2-(3-{[6-(dimethylphosphoryl)-4-methoxypyridin-3-yl]amino}prop-1-yn-1-yl)-N-[(3S,4R)-3-fluoro-1-methylpiperidin-4-yl]-3-[(trifluoromethyl)sulfanyl]indolizin-8-amine] | < 750 nM | ≥ 10000 nM | > 90% | < 750 nM | < 750 nM |  |
| CN1CC[C@@H](Nc2cccn3c(SC(F)(F)F)c(C#CCNc4cc(C(=O)NCC(C)(C)O)ccc4OC4COC4)cc23)[C@@H](F)C1 [Example 459, 3-{[3-(8-{[(3S,4R)-3-fluoro-1-methylpiperidin-4-yl]amino}-3-[(trifluoromethyl)sulfanyl]indolizin-2-yl)prop-2-yn-1-yl]amino}-N-(2-hydroxy-2-methylpropyl)-4-(oxetan-3-yloxy)benzamide] |  |  |  |  |  | IC50 (H1299 p53 Y220C; [6]): < 750 nM; IC50 (NUGC3 p53 Y220C; NUGC3 cells): < 750 nM; IC50 (H1299 p53 R273H; NClH1299-inducible p53 R273H cells): ≥ 10000 nM; AC50 (p53 Y220C; [7]): < 750 nM; Emax (p53 Y220C; Emax, NClH1299 cells with inducible p53 Y220C, 10 uM tool compound as positive control): > 90% |
| CNC(=O)c1ccc(OC)c(NCC#Cc2cc3c(N[C@@H]4CCN(C)C[C@@H]4F)cccn3c2CC(F)(F)F)c1 [Example 509] |  |  |  |  |  | IC50 (H1299 p53 Y220C; [6]): < 750 nM; IC50 (NUGC3 p53 Y220C; NUGC3 cells): < 750 nM; Kd [1]: < 10 nM; AC50 (p53 Y220C; [7]): < 750 nM |
| CNC(=O)c1ccc(NCC#Cc2cc3c(N[C@@H]4CCN(C)C[C@@H]4F)cccn3c2CC(F)(F)F)c(OC)c1 [Example 510] |  |  |  |  |  | IC50 (H1299 p53 Y220C; [6]): < 750 nM; IC50 (NUGC3 p53 Y220C; NUGC3 cells): < 750 nM; Kd [1]: < 10 nM; AC50 (p53 Y220C; [7]): < 750 nM |

Now from value to compound, other results behind:

| IC50 (H1299 p53 Y220C; [2]) | IC50 (H1299 p53 R273H; [3]) | Emax (p53 Y220C; [4]) | AC50 (p53 Y220C; [5]) | Compound | IC50 (NUGC3 p53 Y220C; NUGC3 cells, CellTiter-Glo) | also measured |
| --- | --- | --- | --- | --- | --- | --- |
| > 3000 nM | 5000 to 8000 nM | < 70% | > 3000 nM | CNS(=O)(=O)c1ccc(NCC#Cc2cc3c(N[C@@H]4CCN(C)C[C@@H]4F)cccn3c2SC(F)(F)F)c(OC)c1 [Example 360] | > 3000 nM |  |
| > 3000 nM | 8000 to 10000 nM | 70 to 80% | > 3000 nM | COc1cc(S(N)(=O)=O)ccc1NCC#Cc1cc2c(N[C@@H]3CCN(C)C[C@@H]3F)cccn2c1SC(F)(F)F [Example 362] | > 3000 nM |  |
| < 750 nM | ≥ 10000 nM | > 90% | < 750 nM | COc1ccc(C(=O)NC[C@H](O)CO)cc1NCC#Cc1cc2c(N[C@@H]3CCN(C)C[C@@H]3F)cccn2c1SC(F)(F)F [Example 425] | < 750 nM |  |
